Target: T1, Steroid C26-monooxygenase (Mycobacterium tuberculosis, UniProt P9WPP1)
T1 sequence (P9WPP1 whole entry): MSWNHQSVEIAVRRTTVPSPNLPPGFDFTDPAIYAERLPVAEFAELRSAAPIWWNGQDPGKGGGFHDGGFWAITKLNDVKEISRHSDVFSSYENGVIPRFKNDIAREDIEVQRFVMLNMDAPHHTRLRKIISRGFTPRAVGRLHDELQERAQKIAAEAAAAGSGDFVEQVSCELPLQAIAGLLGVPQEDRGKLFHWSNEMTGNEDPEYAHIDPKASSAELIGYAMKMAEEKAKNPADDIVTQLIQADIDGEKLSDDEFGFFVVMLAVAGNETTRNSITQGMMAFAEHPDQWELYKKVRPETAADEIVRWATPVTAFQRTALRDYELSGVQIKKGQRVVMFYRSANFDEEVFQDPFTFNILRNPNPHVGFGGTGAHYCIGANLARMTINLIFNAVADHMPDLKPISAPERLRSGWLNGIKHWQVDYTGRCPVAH
Assay: Inhibition of Mycobacterium tuberculosis H37Rv CYP125A1 expressed in Escherichia coli at 200 uM

## CC1CCC(C(=O)NC(Cc2c[nH]c3ccccc23)C(=O)Nc2ccncc2)CC1 (stereo unspecified)
  inhibition at 200 µM: 30%

Source: ChEMBL document CHEMBL1641528, “Reverse type I inhibitor of Mycobacterium tuberculosis CYP125A1” (Bioorg Med Chem Lett, 2011)
